Measured values taken from PMC13083723 (Patterns, 2026).
Residues, ends and D or L forms follow the SMILES beside them. *: point of attachment. Cbz = O=C(OCc1ccccc1)*

System: Vero-E6 cells
Assay: cells
Assay type: cell-based
Conditions: for activation at 10 µM: Chlorocebus sabaeus, Vero C1008, 24 h, read-out: PL_Result

SMILES	activation at 10 µM [%]	result_ITMP [percent effect]
CCCCC1C(=O)N(c2ccccc2)N(c2ccc(O)cc2)C1=O (stereo not shown) [SPE_A33749298]	2.66	
CCN(CC)CCOCCOC(=O)C1(c2ccccc2)CCCC1 [SPE_K06181161]	11.3	
C=C[C@@H]1C[C@]1(NC(=O)[C@@H]1C[C@@H](Oc2ncc(OC)c3ccc(Cl)cc23)CN1C(=O)[C@@H](NC(=O)OC(C)(C)C)C(C)(C)C)C(=O)NS(=O)(=O)C1CC1 [SPE_K87028197]	-0.0254	
CC(C)=CCC[C@](C)(O[C@@H]1O[C@H](CO)[C@@H](O)[C@H](O)[C@H]1O)[C@H]1CC[C@]2(C)[C@@H]1[C@H](O)C[C@@H]1[C@@]3(C)CC[C@H](O)C(C)(C)[C@@H]3CC[C@]12C [SPE_K01942833]	-8.36	
CN1c2ccccc2C(=O)N2CCc3c([nH]c4ccccc34)C21 (stereo not shown) [SPE_A68631409]	-12.1	
CCCCCCCCCCCCCCCC(=O)OC(CC(=O)O)C[N+](C)(C)C (stereo not shown) [SPE_A77577770]	3.73	
CN(C)Cc1ccc(-c2nc3cccc4c3n2CCNC4=O)cc1 [SPE_K00615600]	6.53	
CC(CNS(=O)(=O)C(C)C)c1ccc(-c2ccc(C#N)cc2)cc1 (stereo not shown) [SPE_A50062753]	-2.67	
O=C(O)C1=CCCN(CCON=C(c2ccccc2)c2ccccc2)C1 [SPE_K42221274]	0.196	
CN1CCC(=C2c3ccccc3CC(=O)c3sccc32)CC1 [SPE_K28936863]	-4.71	
O=C1N=C2NN=CC2C(=O)N1 (stereo not shown) [SPE_K31841515]	2.22	
Oc1cc(O)cc(/C=C/c2ccc(O)c(O)c2)c1 [SPE_K91509126]	9.23	
O=C(O)c1ccc2c(c1)nc(Nc1cccc(Cl)c1)c1ccncc12 [SPE_K81458380]	1.48	
O=[N+]([O-])c1cn2c(n1)OC[C@@H](OCc1ccc(OC(F)(F)F)cc1)C2 [SPE_K96671969]	-12.7	
Oc1cccc(Nc2ccc(Nc3cccc(O)c3)nn2)c1 [SPE_K38687824]	-9.16	
CC(CN)CC(=O)O (stereo not shown) [SPE_A62890442]	-10.6	

SMILES	activation at 10 µM [%]	result_ITMP [percent effect]
COc1cc([S+](C)[O-])ccc1-c1nc2ncccc2[nH]1 (stereo not shown) [SPE_A22081593]	-4.2	
COc1cc2c(cc1OC)-c1cc3ccc(OC)c(OC)c3c[n+]1CC2 [SPE_K58466253]	0.986	
CC(=O)C1(N)Cc2c(O)c3c(c(O)c2[C@@H](O[C@H]2C[C@H](O)[C@H](O)CO2)C1)C(=O)c1ccccc1C3=O (stereo partly shown) [SPE_K13843533]	6.95	
CCC[C@H](N[C@@H](C)C(=O)N1[C@H](C(=O)O)C[C@@H]2CCCC[C@@H]21)C(=O)O [SPE_K00768353]	-9.94	
N#CCNC(=O)c1ccc(-c2ccnc(Nc3ccc(N4CCOCC4)cc3)n2)cc1 [SPE_K87737963]	7.32	
CC1=CC[C@@H](C(C)(C)O)C[C@@H]1O [SPE_K58262380]	-11.5	
CCNC(=O)C[C@@H]1N=C(c2ccc(Cl)cc2)c2cc(OC)ccc2-n2c(C)nnc21 [I-BET-762, reference compound]		13.27
Clc1ccc(C(OCCN2CCCCC2)c2ccccc2)cc1 (stereo not shown) [SPE_A80908310]	72.5	
COC(=O)c1ccccc1O [SPE_K10103010]	2.4	
CC(C)C[C@@H](C=O)NC(=O)[C@H](CC(C)C)NC(=O)[C@H](CC(C)C)NC(=O)OCc1ccccc1 [SPE_K60230970] (Cbz-Leu-Leu-Leu-aldehyde)	-0.437	
CN1C(CSCC(F)(F)F)Nc2cc(Cl)c(S(N)(=O)=O)cc2S1(=O)=O (stereo not shown) [SPE_A15739803]	0.385	
NC[C@H]1O[C@H](O[C@H]2[C@H](O)[C@@H](O[C@H]3O[C@H](CO)[C@@H](O)[C@H](N)[C@H]3O)[C@H](N)C[C@@H]2N)[C@H](N)C[C@@H]1O [SPE_K96342952]	-3.75	
Nc1ccc(C(=O)Oc2ccccc2)c(O)c1 [SPE_K73157543]	-14.5	
COc1c(C)cnc(Cn2cnc3c(Cl)nc(N)nc32)c1C [SPE_K51967704]	-7.08	
Nc1ncnc2c1ncn2[C@@H]1O[C@H](CO)[C@@H](O)[C@H]1O [SPE_K01577834]	-3.02	
